“Also recorded” adds a separate entry of the source.
Assays:
[1] = system: bleomycin-induced skin fibrosis; test: Bleomycin-induced skin fibrosis model, therapeutic protocol; format: in vivo, mouse; settings: 50 mg/kg/day
Excerpt: Two models of skin fibrosis were used to evaluate the effect of Compound I in comparison with imatinib mesylate, used as a reference.

[2] = system: skin fibrosis; settings: mouse, in vivo; cited from earlier work
[3] = system: thrombosis; test: Acute models of coagulation and arterial thrombosis (two models in rats); format: in vivo
Excerpt: All these pathological events can be observed in SSc patients at different levels and further support the use of Compound I in these patients.

[4] = system: patients with early dcSSc; test: 8-week double-blind, placebo-controlled study with 16-week open-label extension in dcSSc; format: in vivo, human
Excerpt: The primary end point was safety during the double-blind phase of the trial. Exploratory end points included the identification of an LPA-induced gene signature in patients' skin.
Seventeen of 32 patients were randomly assigned to receive placebo and 15 to receive Compound I. Thirty patients participated in the open-label extension study. […] At week 8, the reduction in MRSS was numerically greater in the Compound I group than in the placebo group (mean±SD change −3.57±4.18 versus −2.76±4.85; treatment effect −1.2 [95% confidence interval −4.37, 2.02]).

[5] = system: thrombosis; test: Model of thrombosis in mouse; format: in vivo; settings: one model in mouse
[6] = Single-dose PK under fasted conditions in healthy adult subjects; format: in vivo, human; settings: for AUC(0-inf) / AUC(0-t) / Cmax / Tmax / half-life: human, plasma, oral
Protocol: (§1) The PK of Compound I and food effect were evaluated in an open-label study in healthy volunteers to inform the dose and dosing condition of the tablet formulations used in the clinical studies. Dose proportionality and food effect were evaluated using a 2-way, 2-period crossover design in two cohorts:150 mg and 300 mg single dose under fasting condition in Cohort 1 and 450 mg single dose under fasting and high-fat, high calorie meal condition in Cohort 2. Multiple-dose PK was evaluated using a 2-period, fixed sequence crossover design. Subjects received Compound I twice a day (BID) of 300 mg (Cohort 3) or 450 mg (Cohort 4) administered with low-fat meals in Period 1 and with high-fat meals in Period 2.
(§2) PK sample collections: For cohort 1 and 2, blood samples were collected at predose, 0.5, 1, 2, 3, 4, 6, 8, 12, 24, 36, 48, 72, 96 and 120 h post dose. For cohort 3 and 4, blood samples were collected at predose, 0.5, 1, 2, 4, 5, 12 hrs after the first dose on Day 1. After the last dose on Day 5, PK samples were taken at predose, 0.5, 1, 2, 4, 6, 12, 24, 36, 60, 84, 108 hr in Period 1 and predose, 0.5, 1, 2, 4, 6, 12 hours post last dose in Period 2.
(§3) Plasma concentrations of Compound I were determined using a validated high performance liquid chromatography-tandem mass spectrometry (HPLC MS/MS) method. The analytical range of Compound I were 250-50,000 ng/mL (high range) and […] (low range). Dose-proportionality of pharmacokinetic parameters were examined by analysis of variance (ANOVA) where the AUC0-last, AUC0-inf, and Cmax parameters were dose normalized. 90% confidence intervals (CIs) were derived by exponentiation of the CIs obtained for the difference between the treatment LSMs (Least square means). Dose proportionality was established if the 90% CI for the ratio of the geometric means for the dose-normalized parameters lay within the limits of (0.7, 1.43).

[7] = Food effect on PK at 450 mg single dose in healthy adult subjects; format: in vivo, human; settings: for AUC(0-inf) / AUC(0-t) / Cmax: human, plasma, oral; for AUC(0-inf): read-out: AUC0-inf, Geometric LSM; for AUC(0-t): read-out: AUC0-last, Geometric LSM; for Cmax: read-out: Cmax, Geometric LSM
Protocol: as §1, §2, §3
Food effect was evaluated using ANOVA on the ln-transformed PK parameters. The ANOVA model included sequence, treatment, and period as fixed effects and subject nested within sequence as a random effect. Geometric least square means, geometric mean ratio (High fat vs. fasted) and 90% confidence interval of PK parameters (AUC and Cmax) were calculated from the ANOVA model.

[8] = therapeutic protocol, mouse skin
[9] = 24-weeks of continuous treatment
[10] = Subjects switched from placebo to Compound I, 16-week open label extension
[11] = Fed (high-fat, high-calorie meal)

## COc1ccc(C(=O)NC2(C(=O)O)Cc3ccccc3C2)cc1OCCc1cccc(C)c1 [Compound I, 2-(4-methoxy-3-(3-methylphenethoxy)benzamido)-2,3-dihydro-1H-indene-2-carboxylic acid]
[1]
  effect on these markers versus imatinib reference: comparable with the effects of imatinib
[1]; [8]
  collagen content: able to reverse
  dermal thickness: able to reverse
  myofibroblast differentiation: able to reverse
[2]
  collagen content: reduced
  dermal thickening: reversed
  myofibroblast differentiation: significantly inhibited
[3]
  antithrombotic activity: moderate but significant antithrombotic activity; also recorded: demonstrated antithrombotic activity
[4]; [9]
  Median Decrease in mRSS: −7.5
  Responder Rate: 78.6%
[4]; [10]
  Median Decrease in mRSS: −7.0
  Responder Rate: 69.2%
[4]; blinded phase
  most frequent adverse events: headache, diarrhea, nausea, and falling
[4]; in vivo
  MRSS during the study: improved during the study although the difference was not significant
[4]; initial Compound I group, treatment up to 24 weeks
  disease biomarkers (COMP and TSP1): numerical improvement versus baseline
[4]; open label extension
  LPA-related genes, biomarker analysis of skin biopsies: reductions in LPA-related genes
[4]; open-label extension
  safety profile: acceptable
[4]; patients with dcSSc
  tolerability: well tolerated
[4]; week 8
  reduction of LPA-related genes in skin samples versus placebo group: greater reduction
  treatment effect on MRSS versus placebo: −1.2
[4]; week 8, double-blind phase
  change in MRSS, mean±SD: −3.57±4.18
[4]; week 24
  HAQ-DI (functional disability): clinically significant improvement
[5]
  antithrombotic activity: demonstrated antithrombotic activity
[6]; 150 to 450 mg, ANOVA
  dose proportionality of Cmax and AUC: less than dose-proportional
[6]; 150 mg single dose
  AUC(0-inf): 85.2 µg·h/mL
  AUC(0-t): 83.8 µg·h/mL
  Cmax: 11100 ng/mL
  Tmax: 3.5 h
  half-life: 21.8 h
[6]; 300 mg single dose
  AUC(0-inf): 120 µg·h/mL
  AUC(0-t): 118 µg·h/mL
  Cmax: 14500 ng/mL
  Tmax: 4 h
  half-life: 22.4 h
[6]; 450 mg single dose
  AUC(0-inf): 126 µg·h/mL
  AUC(0-t): 125 µg·h/mL
  Cmax: 15200 ng/mL
  Tmax: 3 h
  half-life: 18.3 h
[7]
  Cmax, GMR fed vs fasted: 190.85%
[7]; Fasted
  AUC(0-inf): 117 µg·h/mL
  AUC(0-t): 116 µg·h/mL
  Cmax: 14000 ng/mL
[7]; [11]
  AUC(0-inf): 248 µg·h/mL
  AUC(0-t): 246 µg·h/mL
  Cmax: 26700 ng/mL

— patent publication US12691086B2, “Methods of treating systemic sclerosis and idiopathic pulmonary fibrosis” (HORIZON THERAPEUTICS IRELAND DAC, priority 2022, dated 2026)
